Experiment [1] has as its system MDA-MB-231 cancer cell line. Briefly: Cell growth assay (WST-8). The experiment is classed as cell-based. Particulars: Homo sapiens, MDA-MB-231, 96 h; WST-8, 4 days; read-out: Inhibition of cell growth IC50, MDA-MB-231 cancer cell line. A digest of the protocol:
(§1)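 Cells (3000–4000/well) grown 4 days with varied compound concentrations, then WST-8 dye added for 1–3 h and absorbance read at 450 nm. Growth inhibition expressed as sample-to-control absorbance ratio.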

Experiment [2] relates to MDA-MB-468 cancer cell line. Briefly: Cell growth assay (WST-8). The experiment is classed as cell-based. Particulars: Homo sapiens, MDA-MB-468, 96 h; WST-8, 4 days; read-out: Inhibition of cell growth IC50, MDA-MB-468 cancer cell line. A digest of the protocol: as §1
For orientation: Formazan colour is commonly taken as a measure of viable cells.

Experiment [3] has as its target T1, STAT3 protein (Homo sapiens, UniProt P40763).
T1 construct: human STAT3 protein (residues 122-722) fused to His-tag; His-tag
The experiment in a line: In vitro competitive STAT3 binding assay (fluorescence polarization). A digest of the protocol:
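FP competition: His-tagged human STAT3 (122-722), 150 nM, with 5 nM 5-Fam-labelled pYLPQTV phosphopeptide tracer (STT2) and titrated inhibitor, read after 2-3 h. IC50 = concentration displacing 50% of tracer, by nonlinear least-squares fit.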
Background: Fluorescence polarisation rises when a labelled molecule tumbles more slowly, as on binding a larger partner.

Where [4] appears, read: FP competitive binding, fluorescently tagged STT2 peptide tracer, read-out: Binding affinities to STAT3 IC50.

This passage reports IC50 results from US20110319362A1, “STAT3 LIGANDS AND THERAPEUTIC USES THEREOF” (priority 2008, published 2011).

pIC50: −log10 of the molar value. Like-named read-outs stand apart in the source and are kept apart here. Where only a bound is given, the exact number is not on record here.

A word on the pIC50: it is the negative decadic logarithm of the IC50, by convention in mol/L.

T1 sequence (P40763 122-722): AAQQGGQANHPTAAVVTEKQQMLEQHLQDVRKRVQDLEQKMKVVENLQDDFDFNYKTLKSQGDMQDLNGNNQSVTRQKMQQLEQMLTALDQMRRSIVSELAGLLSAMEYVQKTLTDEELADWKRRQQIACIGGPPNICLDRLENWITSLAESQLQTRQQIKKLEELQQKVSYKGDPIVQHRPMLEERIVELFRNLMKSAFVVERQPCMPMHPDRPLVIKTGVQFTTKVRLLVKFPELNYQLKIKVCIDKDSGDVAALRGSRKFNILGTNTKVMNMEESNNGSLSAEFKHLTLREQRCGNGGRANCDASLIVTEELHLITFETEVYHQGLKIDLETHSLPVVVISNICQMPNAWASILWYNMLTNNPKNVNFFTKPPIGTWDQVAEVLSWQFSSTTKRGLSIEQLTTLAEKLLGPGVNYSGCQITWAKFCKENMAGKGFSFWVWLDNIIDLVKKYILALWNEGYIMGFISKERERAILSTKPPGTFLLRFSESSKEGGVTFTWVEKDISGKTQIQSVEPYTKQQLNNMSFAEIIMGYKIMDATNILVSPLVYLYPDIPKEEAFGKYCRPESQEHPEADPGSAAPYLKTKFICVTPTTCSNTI

Consider `N[C@@H](Cc1ccc(OP(=O)(O)O)cc1)C(=O)N[C@H]1CCCCC2CC[C@@H](C(=O)N[C@@H](CCC(=O)NC(c3ccccc3)(c3ccccc3)c3ccccc3)C(=O)NCc3ccccc3)N2C1=O` (stereo partly drawn), for which the pIC50 in experiment [1], in experiment [2] and in experiment [3] (setting [4]) was more than 5.00 in each case.
Consider `CP(=O)(O)CCCCCC(=O)N[C@H]1CCCCC2CC[C@@H](C(=O)N[C@@H](CCC(N)=O)C(=O)NCc3ccccc3)N2C1=O` (stereo partly drawn), for which the pIC50 in experiment [1], in experiment [2] and in experiment [3] (setting [4]) was less than 4.00 in each case.
Consider `CCCCCCCCCCCCCCCCCCCCNC(=O)[C@H](CCC(N)=O)NC(=O)[C@@H]1CCC2CCCC[C@H](NC(=O)[C@H](Cc3ccc(OP(=O)(O)O)cc3)NC)C(=O)N21` (stereo partly drawn), for which the pIC50 was more than 4.52 in experiment [1], more than 4.52 in experiment [2] and more than 5.30 in experiment [3] (setting [4]).
`CC(=O)N[C@@H](Cc1ccc(OCP(=O)(O)O)cc1)C(=O)NC1CCCC[C@H]2CC[C@@H](C(=O)N[C@@H](Cc3c[nH]cn3)C(=O)NCc3ccccc3)N2C1=O` (stereo in doubt) [Example 32]: the pIC50 was less than 4.00 in experiment [1], less than 4.00 in experiment [2] and more than 4.52 in experiment [3].
As to `CC(=O)N[C@@H](Cc1ccc(OP(=O)(O)O)cc1)C(=O)N[C@H]1CCCC[C@H]2CC[C@@H](C(=O)N[C@@H](CCC(N)=O)C(=O)NCc3ccccc3)N2C1=O` [Example 1], the pIC50 in experiment [1] is less than 4.70; in experiment [2], less than 4.00; in experiment [3] (setting [4]) it was more than 6.00.
Regarding `CN(C)CCCCNC(=O)[C@@H]1CCC2CCCC[C@H](NC(=O)[C@H](Cc3ccc(OP(=O)(O)O)cc3)NC(=O)OCc3ccccc3)C(=O)N21` (stereo partly drawn), the pIC50 in experiment [1] was less than 4.00; in experiment [2] it was less than 4.00; in experiment [3] (setting [4]), more than 4.52.
`C[C@H](NC(=O)[C@@H]1CC[C@@H]2CCCC[C@H](NC(=O)[C@H](Cc3ccc(OP(=O)(O)O)cc3)NC(=O)OCc3ccccc3)C(=O)N21)C(=O)NCc1ccccc1` [Example 8]: the pIC50 is less than 5.00 in experiment [1], less than 5.00 in experiment [2] and less than 4.70 in experiment [3].
Regarding `CN(C)[C@@H](Cc1ccc(OCP(=O)(O)O)cc1)C(=O)NC1CCCC[C@H]2CC[C@@H](C(=O)N[C@@H](Cc3c[nH]cn3)C(=O)NCc3ccccc3)N2C1=O` (stereo in doubt) [Example 33], the pIC50 in experiment [1], in experiment [2] and in experiment [3] (setting [4]) was less than 4.00 in each case.
Regarding `CCCCCCCCCCCCCCCC(=O)N[C@H](Cc1ccc(OCP(=O)(O)O)cc1)C(=O)N[C@H]1CCCCC2CC[C@@H](C(=O)N[C@@H](CCC(N)=O)C(=O)NCc3ccccc3)N2C1=O` (stereo partly drawn), the results for the pIC50 in experiment [1], in experiment [2] and in experiment [3] were more than 4.00, more than 4.30 and more than 5.30, respectively.
As for `NCCCCNC(=O)[C@@H]1CC[C@@H]2CCCC[C@H](NC(=O)[C@H](Cc3ccc(OP(=O)(O)O)cc3)NC(=O)OCc3ccccc3)C(=O)N21` [Example 14], the pIC50 in experiment [1] is less than 4.00; in experiment [2], less than 4.00; in experiment [3] (setting [4]), more than 5.00.
On to `CN(C)[C@@H](Cc1ccc(OP(=O)(O)O)cc1)C(=O)N[C@H]1CCCCC2CC[C@@H](C(=O)N[C@@H](Cc3c[nH]cn3)C(=O)NCc3ccccc3)N2C1=O` (stereo in doubt) [Example 39], for which the pIC50 in experiment [1] is less than 4.00; in experiment [2] it was less than 4.00; in experiment [3] (setting [4]) it was more than 5.00.
As to `CCCCCCCCCCCCCCCCN1CCN(CCC(=O)N[C@@H](Cc2ccc(OP(=O)(O)O)cc2)C(=O)N[C@H]2CCCCC3CC[C@@H](C(=O)N[C@@H](Cc4c[nH]cn4)C(=O)NCc4ccccc4)N3C2=O)CC1` (stereo partly drawn), the pIC50 was more than 4.52 in experiment [1], more than 4.52 in experiment [2] and more than 5.30 in experiment [3] (setting [4]).
Regarding `CC(=O)N[C@@H](Cc1ccc(OC(C(=O)O)C(=O)O)cc1)C(=O)N[C@H]1CCCCC2CC[C@@H](C(=O)N[C@@H](CCC(N)=O)C(=O)NCc3ccccc3)N2C1=O` (stereo partly drawn), the pIC50 in experiment [1] is less than 4.30; in experiment [2], less than 4.00; in experiment [3] (setting [4]), more than 5.00.
In the same order, the values of `CCCCCCCCCCCCCCCCN1CCN(CCC(=O)N[C@@H](Cc2ccc(OP(=O)(O)O)cc2)C(=O)N[C@H]2CCCCC3CC[C@@H](C(=O)NCCCCN(C)C)N3C2=O)CC1` (stereo partly drawn) are more than 4.00, more than 4.30 and more than 4.70.
In the case of `CCCCCCCCCCCCCCCCN1CCN(CCC(=O)N[C@@H](Cc2ccc(OP(=O)(O)O)cc2)C(=O)N[C@H]2CCCCC3CC[C@@H](C(=O)NCCCCNC)N3C2=O)CC1` (stereo partly drawn), the figures for the pIC50 in experiment [1], in experiment [2] and in experiment [3] (setting [4]) were more than 4.30, more than 4.30 and more than 5.00, respectively.
Regarding `CCCCCCCCCCCCCCCCN1CCN(CCC(=O)N[C@@H](Cc2ccc(CP(=O)(O)O)cc2)C(=O)N[C@H]2CCCCC3CC[C@@H](C(=O)N[C@@H](CCC(N)=O)C(=O)NCc4ccccc4)N3C2=O)CC1` (stereo partly drawn), the negative logarithm of the IC50 (pIC50) in experiment [1], in experiment [2] and in experiment [3] was less than 4.00 in each case.
Turning to `CCOC(=O)C(Oc1ccc(C[C@@H](C(=O)N[C@H]2CCCCC3CC[C@@H](C(=O)N[C@@H](Cc4c[nH]cn4)C(=O)NCc4ccccc4)N3C2=O)N(C)C)cc1)C(=O)OCC` (stereo partly drawn), the negative logarithm of the IC50 (pIC50) was less than 4.00 in experiment [1], less than 4.00 in experiment [2] and less than 5.00 in experiment [3] (setting [4]).
For the molecule `NC(=O)CC[C@H](NC(=O)[C@@H]1CCC2CCCC[C@H](NC(=O)c3cc4cc(CP(=O)(O)O)ccc4[nH]3)C(=O)N21)C(=O)NCc1ccccc1` (stereo partly drawn) [Example 58], the pIC50 in experiment [1] was less than 4.00; in experiment [2], less than 4.00; in experiment [3] it was more than 5.00.
For the molecule `CN[C@@H](Cc1ccc(OC(C(=O)O)C(=O)O)cc1)C(=O)N[C@H]1CCCCC2CC[C@@H](C(=O)N[C@@H](Cc3c[nH]cn3)C(=O)NCc3ccccc3)N2C1=O` (stereo partly drawn), the results for the pIC50 in experiment [1], in experiment [2] and in experiment [3] (setting [4]) were less than 4.00, less than 4.00 and less than 5.00, respectively.
`NC(=O)CC[C@H](NC(=O)[C@@H]1CCC2CCCC[C@H](NC(=O)c3cc4cc(OP(=O)(O)O)ccc4[nH]3)C(=O)N21)C(=O)NCc1ccccc1` (stereo partly drawn) [Example 57]: the pIC50 in experiment [1] was less than 4.00; in experiment [2], less than 4.00; in experiment [3], more than 6.00.
`CN(C)[C@@H](Cc1ccc(OCP(=O)(O)O)cc1)C(=O)NC1CCCC[C@H]2CC[C@@H](C(=O)N[C@@H](Cc3c[nH]cn3)C(=O)NCCc3ccccc3)N2C1=O` (stereo in doubt) [Example 34]: the pIC50 in experiment [1] is less than 4.00; in experiment [2], less than 4.00; in experiment [3] (setting [4]), more than 4.52.
Take `COP(=O)(OC)Oc1ccc(C[C@H](N)C(=O)N[C@H]2CCCCC3CC[C@@H](C(=O)N[C@@H](C)C(=O)NCc4ccccc4)N3C2=O)cc1` (stereo partly drawn): the results for the pIC50 in experiment [1], in experiment [2] and in experiment [3] were less than 4.30, less than 4.00 and less than 4.00, respectively.
On to `CNC(=O)[C@H](CCCN)NC(=O)[C@@H]1CC[C@@H]2CCCC[C@H](NC(=O)[C@H](Cc3ccc(OP(=O)(O)O)cc3)NC(=O)OCc3ccccc3)C(=O)N21` [Example 21], for which the pIC50 in experiment [1] is less than 4.00; in experiment [2], less than 4.00; in experiment [3], more than 5.00.
As for `NCCOCCOCCOCCOCCC(=O)N[C@@H](Cc1ccc(OP(=O)(O)O)cc1)C(=O)N[C@H]1CCCCC2CC[C@@H](C(=O)N[C@@H](CCC(N)=O)C(=O)NCc3ccccc3)N2C1=O` (stereo partly drawn), the pIC50 in experiment [1] is less than 4.00; in experiment [2], less than 4.00; in experiment [3] (setting [4]), more than 5.30.
`NC(=O)CC[C@H](NC(=O)[C@@H]1CC[C@@H]2CCCC[C@H](NC(=O)CCc3ccc(CCC(=O)O)cc3)C(=O)N21)C(=O)NCc1ccccc1` [Example 5]: the results for the pIC50 in experiment [1], in experiment [2] and in experiment [3] (setting [4]) were less than 4.30, less than 4.00 and less than 4.00, respectively.
Regarding `NC(=O)CC[C@H](NC(=O)[C@@H]1CC[C@@H]2CCCC[C@H](NC(=O)CCc3ccc(CP(=O)(O)O)cc3)C(=O)N21)C(=O)NCc1ccccc1` [Example 25], the pIC50 in experiment [1], in experiment [2] and in experiment [3] (setting [4]) was less than 4.00 each time.
With `CN(C)C(=O)CCCNC(=O)[C@@H]1CC[C@@H]2CCCC[C@H](NC(=O)[C@H](Cc3ccc(OP(=O)(O)O)cc3)NC(=O)OCc3ccccc3)C(=O)N21` [Example 18], the pIC50 in experiment [1] was less than 4.00; in experiment [2], less than 4.00; in experiment [3] (setting [4]), more than 4.52.
For the molecule `N=C(N)NCCC[C@H](NC(=O)[C@@H]1CC[C@@H]2CCCC[C@H](NC(=O)[C@H](Cc3ccc(OP(=O)(O)O)cc3)NC(=O)OCc3ccccc3)C(=O)N21)C(=O)NCc1ccccc1` [Example 11], the results for the pIC50 in experiment [1], in experiment [2] and in experiment [3] were less than 4.30, less than 4.00 and less than 5.30, respectively.
With `CCCCCCCCCCCCCCCCNC(=O)[C@H](CCC(N)=O)NC(=O)[C@@H]1CCC2CCCC[C@H](NC(=O)[C@@H](N)Cc3ccc(OP(=O)(O)O)cc3)C(=O)N21` (stereo partly drawn), the negative-log IC50 (pIC50) in experiment [1] was more than 4.30; in experiment [2], more than 4.30; in experiment [3] (setting [4]) it was less than 5.30.
As for `CCOC(=O)C(Oc1ccc(C[C@@H](C(=O)N[C@H]2CCCCC3CC[C@@H](C(=O)N[C@@H](CCCNC(C)=O)C(=O)NCc4ccccc4)N3C2=O)N(C)C)cc1)C(=O)OCC` (stereo partly drawn), the figures for the pIC50 in experiment [1], in experiment [2] and in experiment [3] (setting [4]) were less than 4.00, less than 4.00 and less than 5.00, respectively.
As for `N=C(N)NCCC[C@H](NC(=O)[C@@H]1CC[C@@H]2CCCC[C@H](NC(=O)[C@@H](N)Cc3ccc(OP(=O)(O)O)cc3)C(=O)N21)C(=O)NCc1ccccc1` [Example 12], the negative logarithm of the IC50 (pIC50) in experiment [1] is more than 4.30; in experiment [2], less than 4.00; in experiment [3] (setting [4]), less than 5.30.
In the same order, the values of `CCCNC(=O)[C@@H]1CC[C@@H]2CCCC[C@H](NC(=O)[C@H](Cc3ccc(OP(=O)(O)O)cc3)NC(=O)OCc3ccccc3)C(=O)N21` [Example 15] are less than 4.52, less than 4.00 and more than 4.52.
